# Data published in US5328985A, “Recombinant streptavidin-protein chimeras useful for conjugation of molecules in the immune system” (priority 1991, dated 1994).
# System: recombinant streptavidin-Protein A chimeric protein encoded in pTSAPA-2 (streptavidin residues 16-133 fused to Protein A regions E and D; 31.4 kDa subunit …)
# Experiment: Determination of biotin-binding ability by gel filtration with D-[carbonyl-14C]biotin
# Conditions: purified chimeric protein, subunit 31.4 kDa; room temperature, TBS; Sephadex G-25 gel filtration
# Procedure: Biotin-binding ability was determined by gel filtration according to Methods Enzymol., 18A:424 (1970) using a Sephadex G-25 desalting column (PD-10; 0.76×5.0 cm, Pharmacia-LKB) and D-[carbonyl-^14 C]biotin (52 mCi/mmol, Amersham). The binding of the chimeric protein to biotin was done at room temperature in TBS containing 0.02% NAN3, and the same solution was used as the eluent.
smiles,measurement,value
"O=C(O)CCCC[C@@H]1SC[C@@H]2NC(=O)N[C@@H]21 [biotin, D-biotin]",biotin-binding ability: molecules of biotin bound per subunit,more than 0.96 molecules of biotin per subunit
